One assay concerns the target IDO1 in HeLa cells (Homo sapiens (Human), UniProt P14902). Briefly: HeLa cell based IDO1 assay (IFNγ-induced, KYN in supernatant). How it is done:
HeLa cells were obtained from ATCC and maintained in DMEM supplemented with sodium bicarbonate (2.1 g/L), HEPES (4.1 g/L), L-glutamine (2 mM), non-essential amino acid (84 mg/L) and fetal bovine serum (10% FBS) and maintained at 95% humidity and 5% CO2 in a 37° C. incubator. Unless otherwise stated, all materials were procured from Sigma. Upon incubation with gamma-interferon (IFNγ ), HeLa cells express IDO1, which catalyzes the formation of N-formyl kynurenine from tryptophan present in growth medium. The assay was performed as follows:
Cells were plated in medium (300 μL) at a density of 0.1 million per well of a 48 well plate and hIDO1 was induced by overnight treatment with IFNγ (50 ng/mL) (Peprotech, USA). The following day, cells were washed to remove IFNγ and were incubated with specific concentrations of test compounds (typically 10 μM to 1 nM, final volume 300 μL) in Hanks Balanced Salt Solution (HBSS) containing 80 μM L-tryptophan. Following incubation, supernatant (150 μL) was transferred to a 96 well plate into which 30%TCA (304) was added and the contents further incubated at 65° C. for 15 min to fully convert N-formylkynurenine to kynurenine. The reaction mixture was then centrifuged to remove sediments and the KYN in the supernatant was estimated by UV-visible absorption spectroscopy at 360 nm using a Waters HPLC system fitted with a C-18 column. (Xiangdong Liu et al. Blood 2010, Vol-117, 3520-30; Sono described above).
Percent inhibition at each concentration of test compounds was determined by estimating the decrease in KYN with reference to the reaction control with 1% DMSO vehicle. Data were analyzed using nonlinear regression to generate IC50 values using Graph Pad Prism® 5.

The target of assay [1] is Human TDO (hTDO)-transfected CHO-K1 cells (Homo sapiens (Human), UniProt P48775). Put plainly: CHO-K1 cell based TDO assay. As to conditions: hTDO cellular assay. In outline: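 Stably hTDO-expressing CHO-K1 cells were exposed to compounds (typically 31 μM to 10 nM) in HBSS with 80 μM L-tryptophan for 2 h. TCA-treated supernatant was heated at 65° C for 15 min to convert N-formylkynurenine, then kynurenine was quantified by LC/MS/MS. IC50 came from percent inhibition versus DMSO control.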
Chain of Human TDO (hTDO)-transfected CHO-K1 cells (P48775 whole entry): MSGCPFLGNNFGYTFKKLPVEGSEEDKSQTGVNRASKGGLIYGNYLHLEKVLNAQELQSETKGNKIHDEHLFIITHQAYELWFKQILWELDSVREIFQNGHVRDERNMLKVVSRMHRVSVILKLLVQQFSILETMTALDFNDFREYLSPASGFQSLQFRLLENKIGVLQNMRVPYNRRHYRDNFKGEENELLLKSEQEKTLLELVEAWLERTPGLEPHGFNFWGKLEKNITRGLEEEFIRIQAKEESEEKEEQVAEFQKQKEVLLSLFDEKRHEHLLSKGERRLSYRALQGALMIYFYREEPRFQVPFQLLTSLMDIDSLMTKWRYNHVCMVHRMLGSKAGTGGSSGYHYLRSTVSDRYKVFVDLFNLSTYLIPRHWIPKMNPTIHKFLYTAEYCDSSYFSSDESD

Assay [2] addresses Human indoleamine 2,3-dioxygenase1 (hIDO1) (Homo sapiens (Human), UniProt P14902). Briefly: In-vitro IDO1 enzyme assay (conversion of L-tryptophan to KYN). As to conditions: read-out: IC50 (IDO1) Enz. It counts as biochemical. In outline: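 His-tagged hIDO1 (10 nM, E. coli-expressed) incubated with 30 μM L-tryptophan, 20 mM ascorbate, 10 μM methylene blue and 100 μg/mL catalase in 50 mM potassium phosphate pH 6.5, 30 min at 37 °C. TCA stop, then 65 °C hydrolysis; KYN measured by HPLC-UV at 360 nm or LC/MS/MS. IC50 by nonlinear regression versus 1% DMSO control.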

Chain of IDO1 in HeLa cells (P14902 whole entry): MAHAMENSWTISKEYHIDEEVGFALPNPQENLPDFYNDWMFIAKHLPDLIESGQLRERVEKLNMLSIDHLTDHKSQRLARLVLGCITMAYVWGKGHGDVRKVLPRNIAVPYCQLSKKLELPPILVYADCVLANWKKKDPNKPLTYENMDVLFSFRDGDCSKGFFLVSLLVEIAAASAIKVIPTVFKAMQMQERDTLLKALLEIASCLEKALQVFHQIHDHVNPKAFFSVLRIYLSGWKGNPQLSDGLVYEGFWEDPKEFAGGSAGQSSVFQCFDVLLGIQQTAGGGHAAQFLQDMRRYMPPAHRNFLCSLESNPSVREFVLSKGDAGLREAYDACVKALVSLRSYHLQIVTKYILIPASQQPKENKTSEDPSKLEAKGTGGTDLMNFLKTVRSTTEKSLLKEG
Chain of Human indoleamine 2,3-dioxygenase1 (hIDO1) (P14902 whole entry): as above

On to `Nc1oc2cnccc2c1Nc1ccc(Cl)c(Cl)c1` [Compound 15, N^3-(3,4-Dichlorophenyl)furo[2,3-c]pyridine-2,3-diamine], for which the figures for the 50% inhibitory concentration (IC50) (against IDO1 in HeLa cells; in assay [1]; in assay [2]) were 200 to 1000 nM, 500 to 2000 nM and 200 to 1000 nM, respectively.
As to `Nc1oc2cnccc2c1Nc1ccc(Br)cc1` [Compound 16, N^3-(4-Bromophenyl)furo[2,3-c]pyridine-2,3-diamine], the half-inhibitory concentration (IC50) on IDO1 in HeLa cells is 200 to 1000 nM; in assay [1], 500 to 2000 nM; in assay [2] it was greater than 1000 nM.
The matching figures for `CCc1cccc(Nc2c(N)oc3cnccc23)c1` [Compound 19, N^3-(3-Ethylphenyl)furo[2,3-c]pyridine-2,3-diamine]: 200 to 1000 nM, greater than 2000 nM and 200 to 1000 nM.
On to `Nc1oc2cnccc2c1Nc1cccc(I)c1` [Compound 20, N^3-(3-Iodophenyl)furo[2,3-c]pyridine-2,3-diamine], for which the half-inhibitory concentration (IC50) at IDO1 in HeLa cells was less than 200 nM; in assay [1], 500 to 2000 nM; in assay [2] it was less than 200 nM.
Consider `Cc1ccc(Nc2c(N)oc3cnccc23)cc1Br` [Compound 21, N^3-(3-Bromo-4-methylphenyl)furo[2,3-c]pyridine-2,3-diamine], for which the IC50 was less than 200 nM at IDO1 in HeLa cells, 500 to 2000 nM in assay [1] and 200 to 1000 nM in assay [2].
On the same counts, the results for `Nc1oc2cnccc2c1Nc1cc(F)c(F)c(Br)c1` [Compound 22, N^3-(3-Bromo-4,5-difluorophenyl)furo[2,3-c]pyridine-2,3-diamine] are 200 to 1000 nM, greater than 2000 nM and greater than 1000 nM.
The matching figures for `COc1ccc(Cl)cc1Nc1c(N)oc2cnccc12` [Compound 25, N^3-(5-Chloro-2-methoxyphenyl)furo[2,3-c]pyridine-2,3-diamine]: 200 to 1000 nM, 500 to 2000 nM and greater than 1000 nM.
The matching figures for `Nc1oc2cnccc2c1Nc1cccc(C(F)(F)F)c1` [Compound 26, N^3-(3-(Trifluoromethyl)phenyl)furo[2,3-c]pyridine-2,3-diamine]: less than 200 nM, 500 to 2000 nM and less than 200 nM.
In the case of `Cc1cc(Nc2c(N)oc3cnccc23)ccc1F` [Compound 27, N^3-(4-Fluoro-3-methylphenyl)furo[2,3-c]pyridine-2,3-diamine], the values for the 50% inhibitory concentration (IC50) (on IDO1 in HeLa cells; in assay [1]; in assay [2]) were less than 200 nM, 500 to 2000 nM and less than 200 nM, respectively.
Turning to `Cc1ccc(Nc2c(N)oc3cnccc23)cc1Cl` [Compound 33, N^3-(3-Chloro-4-methylphenyl)furo[2,3-c]pyridine-2,3-diamine], the concentration for half-maximal inhibition (IC50) at IDO1 in HeLa cells was less than 200 nM; in assay [1], 500 to 2000 nM; in assay [2], less than 200 nM.
For the molecule `Nc1oc2cnccc2c1Nc1ccc2c(c1)OCO2` [Compound 35, N^3-(Benzo[d][1,3]dioxol-5-yl)furo[2,3-c]pyridine-2,3-diamine], the IC50 was less than 200 nM at IDO1 in HeLa cells, 500 to 2000 nM in assay [1] and 200 to 1000 nM in assay [2].
The matching figures for `Cc1ccc(Nc2c(N)oc3cnccc23)cc1` [Compound 40, N^3-(p-tolyl)Furo[2,3-c]pyridine-2,3-diamine]: less than 200 nM, 500 to 2000 nM and greater than 1000 nM.
For the molecule `Nc1oc2cnccc2c1Nc1cccc(C2CC2)c1` [Compound 42, N^3-(3-Cyclopropylphenyl)furo[2,3-c]pyridine-2,3-diamine], the half-maximal inhibitory concentration (IC50) is less than 200 nM against IDO1 in HeLa cells, greater than 2000 nM in assay [1] and less than 200 nM in assay [2].
In the case of `CC(C)c1cccc(Nc2c(N)oc3cnccc23)c1` [Compound 43, N^3-(3-Isopropylphenyl)furo[2,3-c]pyridine-2,3-diamine], the figures for the IC50 (at IDO1 in HeLa cells; in assay [1]; in assay [2]) were less than 200 nM, greater than 2000 nM and 200 to 1000 nM, respectively.
The matching figures for `Nc1oc2cnccc2c1Nc1ccc(F)c(Cl)c1F` [Compound 44, N^3-(3-Chloro-2,4-difluorophenyl)furo[2,3-c]pyridine-2,3-diamine]: less than 200 nM, 500 to 2000 nM and 200 to 1000 nM.

Source of the values: patent publication US10294212B2 (CURADEV PHARMA PRIVATE LTD., priority 2013, dated 2019).
